This is an account of results in patent US20250145594A1, “MODULATORS OF THE INTEGRATED STRESS PATHWAY” (Calico Life Sciences LLC, priority 2020, published 2025).

Some results are limits rather than exact numbers.

In the experiment the test system is ATF4 luciferase reporter in HEK293T cells. As to the kind of experiment: ATF4-Luc assay (in vitro model of VWMD). In kind it is cell-based, human. As to conditions: Homo sapiens, HEK-293T, 7 h, HEK293T cells carrying the ATF4 luciferase reporter, 1 μg/mL tunicamycin, One Glo luminescence. In a few lines:
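Tunicamycin (1 μg/mL) stress with co-added compound for 7 hours in HEK293T cells stably carrying an ATF4 5′-UTR–luciferase reporter. EC50 values come from the luminescent signal (One Glo).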
For orientation: Reporter assays use an easily measured gene product as a stand-in for the process of interest.

Take `O=C(COc1ccc(Cl)c(F)c1)NC12CC(n3cc(C4CCN(CC(F)(F)F)CC4)cn3)(C1)C2` [Compound 608, 2-(4-chloro-3-fluorophenoxy)-N-(3-{4-[1-(2,2,2-trifluoroethyl)piperidin-4-yl]-1H-pyrazol-1-yl}bicyclo[1.1.1]pentan-1-yl)acetamide]: the half-maximal effective concentration (EC50) fell in the range of 10 to 50 nM.

`O=C(NC12CC(n3cc([C@H]4C[C@@H](OC(F)(F)F)C4)nn3)(C1)C2)[C@H]1C[C@@H](O)c2cc(Cl)c(F)cc2O1` [Compound 473, (2R,4R)-6-chloro-7-fluoro-4-hydroxy-N-(3-{4-[(1s,3S)-3-(trifluoromethoxy)cyclobutyl]-1H-1,2,3-triazol-1-yl}bicyclo[1.1.1]pentan-1-yl)-3,4-dihydro-2H-1-benzopyran-2-carboxamide]: the EC50 was less than 10 nM.

For the compound `Cn1nc(C23CC(NC(=O)COc4ccc(Cl)c(F)c4)(C2)C3)cc1OC[C@H]1C[C@@H](OC(F)(F)F)C1` [Compound 387, 2-(4-chloro-3-fluorophenoxy)-N-[3-(1-methyl-5-{[cis-3-(trifluoromethoxy)cyclobutyl]methoxy}-1H-pyrazol-3-yl)bicyclo[1.1.1]pentan-1-yl]acetamide], the concentration for a half-maximal effect (EC50) was in the range of 50 to 250 nM. The figure for `COc1cc2cn(C34CC(NC(=O)[C@H]5C[C@@H](O)c6cc(Cl)ccc6O5)(C3)C4)nc2cn1` [Compound 497, (2R,4R)-6-chloro-4-hydroxy-N-[3-(5-methoxy-2H-pyrazolo[3,4-c]pyridin-2-yl)bicyclo[1.1.1]pentan-1-yl]-3,4-dihydro-2H-1-benzopyran-2-carboxamide] is 10 to 50 nM; for `O=C(NC12CC(c3cnc([C@H]4C[C@@H](OC(F)(F)F)C4)o3)(C1)C2)[C@H]1C[C@@H](O)c2cc(Cl)ccc2O1` [Compound 410, (2R,4R)-6-chloro-4-hydroxy-N-(3-{2-[cis-3-(trifluoromethoxy)cyclobutyl]-1,3-oxazol-5-yl}bicyclo[1.1.1]pentan-1-yl)-3,4-dihydro-2H-1-benzopyran-2-carboxamide] it is less than 10 nM. For the compound `O=C(NC12CC(n3cc(-c4ccc(C(F)(F)F)cn4)cn3)(C1)C2)[C@H]1C[C@H](O)c2cc(C(F)(F)F)ccc2O1` [Compound 549, (2R,4S)-4-hydroxy-6-(trifluoromethyl)-N-(3-{4-[5-(trifluoromethyl)pyridin-2-yl]-1H-pyrazol-1-yl}bicyclo[1.1.1]pentan-1-yl)-3,4-dihydro-2H-1-benzopyran-2-carboxamide], the EC50 was less than 10 nM. The figure for `O=C1C[C@H](C(=O)N[C@H]2C[C@H]3CC[C@@H](C2)N3CCCOc2ccc(Cl)cc2)Oc2ccc(Cl)cc21` [Compound 101, (2R)-6-chloro-N-{(1R,3r,5S)-8-[3-(4-chlorophenoxy)propyl]-8-azabicyclo[3.2.1]octan-3-yl}-4-oxo-3,4-dihydro-2H-1-benzopyran-2-carboxamide] is greater than 2000 nM; for `O=C(NCc1ccc(C(F)(F)F)cn1)[C@H]1C[C@H]2O[C@@H]1CC2NC(=O)[C@H]1C[C@@H](O)c2cc(Cl)ccc2O1` (mixture of isomers) [Compound 313, (2R,4R)-6-chloro-4-hydroxy-N-[(1RS,2SR,4RS,5SR)-5-({[5-(trifluoromethyl)pyridin-2-yl]methyl}carbamoyl)-7-oxabicyclo[2.2.1]heptan-2-yl]-3,4-dihydro-2H-1-benzopyran-2-carboxamide] it is 250 to 500 nM. As for `O=C(COc1ccc(C(F)(F)F)cc1)NC12CC(n3cc(C(=O)N4CC[C@H](OC(F)(F)F)C4)cn3)(C1)C2` [Compound 604, N-(3-{4-[(3S)-3-(trifluoromethoxy)pyrrolidine-1-carbonyl]-1H-pyrazol-1-yl}bicyclo[1.1.1]pentan-1-yl)-2-[4-(trifluoromethyl)phenoxy]acetamide], the figure is less than 10 nM. As for `O=C(NC12CC(n3cc(CCCOC(F)(F)F)nn3)(C1)C2)[C@H]1C[C@@H](O)c2cc(Cl)ccc2O1` [Compound 516, (2R,4R)-6-chloro-4-hydroxy-N-(3-{4-[3-(trifluoromethoxy)propyl]-1H-1,2,3-triazol-1-yl}bicyclo[1.1.1]pentan-1-yl)-3,4-dihydro-2H-1-benzopyran-2-carboxamide], the EC50 is less than 10 nM. The figure for `COc1ccc2nn(C34CC(NC(=O)C5CNc6cc(C(F)(F)F)c(F)cc6O5)(C3)C4)cc2c1` (stereo not drawn) [Compound 653, 7-fluoro-N-[3-(5-methoxy-2H-indazol-2-yl)bicyclo[1.1.1]pentan-1-yl]-6-(trifluoromethyl)-3,4-dihydro-2H-1,4-benzoxazine-2-carboxamide] is 50 to 250 nM; for `O=C(CO[C@H]1C[C@@H](OC(F)(F)F)C1)NC12CCC(NC(=O)[C@H]3C[C@@H](O)c4cc(C(F)(F)F)ccc4O3)(CC1)[C@@H](O)C2` [Compound 489, (2R,4R)-4-hydroxy-N-[(2S)-2-hydroxy-4-(2-{[(1s,3R)-3-(trifluoromethoxy)cyclobutyl]oxy}acetamido)bicyclo[2.2.2]octan-1-yl]-6-(trifluoromethyl)-3,4-dihydro-2H-1-benzopyran-2-carboxamide] it is less than 10 nM; for `O=C(NC12CC(n3cc(OCCCOC(F)(F)F)cn3)(C1)C2)[C@H]1C[C@@H](O)c2cc(Cl)c(F)cc2O1` [Compound 433, (2R,4R)-6-chloro-7-fluoro-4-hydroxy-N-(3-{4-[3-(trifluoromethoxy)propoxy]-1H-pyrazol-1-yl}bicyclo[1.1.1]pentan-1-yl)-3,4-dihydro-2H-1-benzopyran-2-carboxamide] it is less than 10 nM. Turning to `COc1ccc2nn(C34CCC(NC(=O)COc5ccc(Cl)c(F)c5)(CC3)[C@@H](O)C4)cc2c1` [Compound 597, 2-(4-chloro-3-fluorophenoxy)-N-[(2S)-2-hydroxy-4-(5-methoxy-2H-indazol-2-yl)bicyclo[2.2.2]octan-1-yl]acetamide], the EC50 fell in the range of 10 to 50 nM. As for `O=C(NC12CC(n3cc(OCCOC(F)(F)F)cn3)(C1)C2)[C@H]1C[C@H](O)c2cc(C(F)(F)F)c(F)cc2O1` [Compound 633, (2R,43)-7-fluoro-4-hydroxy-N-(3-{4-[2-(trifluoromethoxy)ethoxy]-1H-pyrazol-1-yl}bicyclo[1.1.1]pentan-1-yl)-6-(trifluoromethyl)-3,4-dihydro-2H-1-benzopyran-2-carboxamide], the figure is less than 10 nM. As for `O=C1CC(C(=O)NC23CC(c4nnc([C@H]5C[C@@H](OC(F)(F)F)C5)o4)(C2)C3)Oc2ccc(Cl)cc21` (stereo partly drawn) [Compound 151, 6-chloro-4-oxo-N-(3-{5-[(1s,3s)-3-(trifluoromethoxy)cyclobutyl]-1,3,4-oxadiazol-2-yl}bicyclo[1.1.1]pentan-1-yl)-3,4-dihydro-2H-1-benzopyran-2-carboxamide], the figure is 50 to 250 nM; as for `O=C(NC12CC(n3cc(OCCOC(F)F)cn3)(C1)C2)[C@H]1C[C@@H](O)c2cc(Cl)ccc2O1` [Compound 420, (2R,4R)-6-chloro-N-(3-{4-[2-(difluoromethoxy)ethoxy]-1H-pyrazol-1-yl}bicyclo[1.1.1]pentan-1-yl)-4-hydroxy-3,4-dihydro-2H-1-benzopyran-2-carboxamide], 10 to 50 nM; as for `O=C(NC12CC(n3cc(CCCOC(F)(F)F)cn3)(C1)C2)[C@H]1C[C@@H](O)c2cc(C(F)(F)F)ccc2O1` [Compound 513, (2R,4R)-4-hydroxy-N-(3-{4-[3-(trifluoromethoxy)propyl]-1H-pyrazol-1-yl}bicyclo[1.1.1]pentan-1-yl)-6-(trifluoromethyl)-3,4-dihydro-2H-1-benzopyran-2-carboxamide], less than 10 nM. `O=C(COc1ccc(Cl)c(F)c1)NC12CC(c3ccc(C(=O)N4CCC(C(F)(F)F)C4)nc3)(C1)C2` (stereo not drawn) [Compound 619, 2-(4-chloro-3-fluorophenoxy)-N-(3-{6-[3-(trifluoromethyl)pyrrolidine-1-carbonyl]pyridin-3-yl}bicyclo[1.1.1]pentan-1-yl)acetamide]: the 50% effective concentration (EC50) was 10 to 50 nM. The figure for `O=C(NC12CC(n3cc(N4CC[C@@H](OC(F)(F)F)C4)cn3)(C1)C2)[C@H]1C[C@@H](O)c2cc(C(F)(F)F)ccc2O1` [Compound 579, (2R,4R)-4-hydroxy-N-(3-{4-[(3R)-3-(trifluoromethoxy)pyrrolidin-1-yl]-1H-pyrazol-1-yl}bicyclo[1.1.1]pentan-1-yl)-6-(trifluoromethyl)-3,4-dihydro-2H-1-benzopyran-2-carboxamide] is less than 10 nM; for `O=C(NC12CC(n3cc(-c4ccc(Cl)c(F)c4)nn3)(C1)C2)[C@H]1C[C@@H](O)c2cc(Cl)ccc2O1` [Compound 358, (2R,4R)-6-chloro-N-{3-[4-(4-chloro-3-fluorophenyl)-1H-1,2,3-triazol-1-yl]bicyclo[1.1.1]pentan-1-yl}-4-hydroxy-3,4-dihydro-2H-1-benzopyran-2-carboxamide] it is less than 10 nM. As for `O=C(NC12CC(c3nnc(OCCOC(F)(F)F)o3)(C1)C2)[C@H]1C[C@@H](O)c2cc(Cl)ccc2O1` [Compound 468, (2R,4R)-6-chloro-4-hydroxy-N-(3-{5-[2-(trifluoromethoxy)ethoxy]-1,3,4-oxadiazol-2-yl}bicyclo[1.1.1]pentan-1-yl)-3,4-dihydro-2H-1-benzopyran-2-carboxamide], the figure is less than 10 nM; as for `O=C(N[C@H]1C[C@@H](OC(F)(F)F)C1)c1cnn(C23CC(NC(=O)[C@H]4C[C@@H](O)c5cc(Cl)ccc5O4)(C2)C3)c1` [Compound 376, 1-(3-{[(2R,4R)-6-chloro-4-hydroxy-3,4-dihydro-2H-1-benzopyran-2-carbonyl]amino}bicyclo[1.1.1]pentan-1-yl)-N-[cis-3-(trifluoromethoxy)cyclobutyl]-1H-pyrazole-4-carboxamide], 50 to 250 nM. The figure for `COCCOc1cnn(C23CC(NC(=O)[C@H]4C[C@@H](O)c5cc(Cl)ccc5O4)(C2)C3)c1` [Compound 426, (2R,4R)-6-chloro-4-hydroxy-N-{3-[4-(2-methoxyethoxy)-1H-pyrazol-1-yl]bicyclo[1.1.1]pentan-1-yl}-3,4-dihydro-2H-1-benzopyran-2-carboxamide] is 250 to 500 nM.

As usually defined, the EC50 is the concentration at which the effect is half-maximal.
